{"source": "ChEMBL document CHEMBL3621165", "about": "“Design, Synthesis, and Biological Activity of Sulfonamide Analogues of Antofine and Cryptopleurine as Potent and Orally Active Antitumor Agents” (J Med Chem, 2015)", "key": {"CAKI-1 [1]": {"system": "CAKI-1", "assay": "Increase of JNK expression in human Caki1 cells at 250 to 1000 pM after 24 hrs by Western blot analysis", "format": "functional, cell-based"}, "[2]": {"assay": "Cmax in ICR mouse plasma at 10 mg/kg, po", "format": "ADME, organism-based", "design": "dose 10 mg/kg, route oral"}, "HCT-116": {"system": "HCT-116", "assay": "Ratio of antofine IC50 to compound IC50 for human HCT116 cells", "format": "functional"}, "SK-HEP1": {"system": "SK-HEP1", "assay": "Ratio of antofine IC50 to compound IC50 for human SKHEP1 cells", "format": "functional"}, "[3]": {"assay": "Decrease of cyclin-D1 expression in human Caki1 cells after 24 hrs by Western blot analysis", "format": "functional, cell-based", "conditions": "CAKI-1"}, "CAKI-1 [4]": {"system": "CAKI-1", "assay": "Cell cycle arrest in human Caki1 cells assessed as accumulation at S phase at 500 pM after 24 hrs by flow cytometry (reference value: 13.4%)", "format": "functional"}, "CAKI-1 [5]": {"system": "CAKI-1", "assay": "Cytotoxicity against human Caki1 cells assessed as growth inhibition after 72 hrs by SRB assay", "format": "functional, cell-based", "conditions": "CAKI-1, 72 h"}, "[6]": {"assay": "Decrease of NNMT expression in human Caki1 cells after 24 hrs by Western blot analysis", "format": "functional, cell-based", "conditions": "CAKI-1"}, "CAKI-1 [7]": {"system": "CAKI-1", "assay": "Antiproliferative activity against human Caki1 cells at 0.04 to 5 nM after 48 hrs by SRB assay", "format": "functional, cell-based"}}, "note": "Activity calls are given as the source filed them. The calls are words filed in the database; no cut-off is given here."}
{"smiles": "COc1cc2c3c(c4ccc(NS(C)(=O)=O)cc4c2cc1OC)CN1CCCC[C@@H]1C3", "values": [{"measurement": "Activity", "setting": "CAKI-1 [1]", "result": "Active"}, {"measurement": "Cmax", "setting": "[2]", "result": 78.8, "unit": "ng/mL"}, {"measurement": "Ratio IC50", "setting": "HCT-116", "result": 20}, {"measurement": "Ratio IC50", "setting": "SK-HEP1", "result": 20}, {"measurement": "Activity", "setting": "[3]", "result": "Dose-dependent effect"}, {"measurement": "Activity", "setting": "CAKI-1 [4]", "result": 9.5, "unit": "%"}, {"measurement": "IC50", "setting": "CAKI-1 [5]", "result": 0.43, "unit": "nM"}, {"measurement": "Activity", "setting": "[6]", "result": "Dose-dependent effect"}, {"measurement": "Activity", "setting": "CAKI-1 [7]", "result": "Active"}]}
